# Measurements taken from patent US20080161327A1, “Substituted 9-Alkyladenines and the Use Thereof” (Aderis Pharmaceuticals, Inc., priority 2005, published 2008).
# pIC50, pKi: −log10 of the molar value. Where two headings read alike, the source gives them in different places.
# Columns and labels:
# [1] = target: T1, A2A (h) adenosine receptor (Homo sapiens, UniProt P29274); assay: Human recombinant adenosine receptor binding, A2A (h), [3H]CGS 21680
# T1 construct: expressed in transfected cells
# T1 sequence (P29274 whole entry): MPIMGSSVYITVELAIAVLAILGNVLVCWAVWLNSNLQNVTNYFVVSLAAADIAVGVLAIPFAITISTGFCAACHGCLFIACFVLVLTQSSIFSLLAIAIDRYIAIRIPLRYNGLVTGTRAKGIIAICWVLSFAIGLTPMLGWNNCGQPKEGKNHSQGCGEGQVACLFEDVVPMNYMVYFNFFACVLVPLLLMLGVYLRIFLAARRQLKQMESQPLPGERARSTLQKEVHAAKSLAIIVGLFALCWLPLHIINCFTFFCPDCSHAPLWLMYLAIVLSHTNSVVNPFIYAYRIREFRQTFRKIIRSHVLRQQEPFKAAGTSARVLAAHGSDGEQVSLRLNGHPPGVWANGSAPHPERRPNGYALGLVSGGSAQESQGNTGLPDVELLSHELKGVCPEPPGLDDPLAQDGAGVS
# Procedure: (§1) The compounds of the present invention were subjected to in vitro human recombinant adenosine receptor binding assays. Scintillation counting was used as the method of detection.
# (§2) The IC50 values (concentration causing a half-maximal inhibition of control specific binding) and Hill coefficients (nH) were determined by non-linear regression analysis of the competition curves using Hill equation curve fitting (Motulsky, H. and Christopoulos, A., Fitting Models to Biological Data Using Linear and Nonlinear Regression, GraphPad Software Inc. (2003)).
# (§3) The inhibition constants (Ki) were calculated from the Cheng Prusoff equation (Motulsky, H. and Christopoulos, A., supra).
# [2] = target: T2, adenosine A1 receptors (Cavia porcellus, UniProt P47745); assay: Adenosine A1 in vitro functional test, negative inotropic response in left atria (Schild plot); format: cell-based; details: guinea pig left atria, agonist NECA or CPA, read-out: KB (antagonist dissociation constant)
# T2 construct: from tissue; host or cells: guinea pig left atria
# T2 sequence (P47745 1-326): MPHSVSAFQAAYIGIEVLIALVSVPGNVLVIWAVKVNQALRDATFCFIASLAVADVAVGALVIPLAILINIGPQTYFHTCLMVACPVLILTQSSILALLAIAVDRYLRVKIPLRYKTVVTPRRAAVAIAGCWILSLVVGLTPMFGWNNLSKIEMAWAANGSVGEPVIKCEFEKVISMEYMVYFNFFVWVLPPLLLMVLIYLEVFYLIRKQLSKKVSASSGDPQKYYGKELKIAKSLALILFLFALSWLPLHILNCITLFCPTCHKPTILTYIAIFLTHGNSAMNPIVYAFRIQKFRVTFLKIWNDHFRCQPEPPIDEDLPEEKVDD
# Procedure: A1 assay—Negative inotropic response (Barrett, R. J. et al., J. Pharmacol. Exp. Ther. 265:227-236 (1993)): Guinea pig left atria were placed in organ baths filled with Krebs Henseleit solution gassed with 95% O2 and 5% CO2 and maintained at a temperature of 31° C. An initial resting tension of 1 g was placed on each tissue, which was allowed to equilibrate. Atria were stimulated electrically to produce twitch responses. A fixed concentration of the test compound was added and the tissue was allowed to equilibrate for 1 hour before cumulative additions of an adenosine agonist (either 5′-N-ethylcarboxamidoadenosine (NECA) or N^6-cyclopentyladenosine (CPA)) to generate a dose response curve. This procedure was repeated with different concentrations of test compounds to generate a family of dose response curves. Schild plots were constructed from the resultant concentration-effect curves, and KB (antagonist dissociation constant) values were obtained. The results presented in Table 9 are expressed as KB values (concentrations of test compound such that one-half of the tissue adenosine receptor population is occupied by the test compound).
# [3] = target: T3, A2B (h) adenosine receptor (Homo sapiens, UniProt P29275); assay: Human recombinant adenosine receptor binding, A2B (h), [3H]MRS 1754; details: for pKi: Table 8, read-out: Affinity Ki, A2B
# T3 construct: expressed in transfected cells
# T3 sequence (P29275 1-332): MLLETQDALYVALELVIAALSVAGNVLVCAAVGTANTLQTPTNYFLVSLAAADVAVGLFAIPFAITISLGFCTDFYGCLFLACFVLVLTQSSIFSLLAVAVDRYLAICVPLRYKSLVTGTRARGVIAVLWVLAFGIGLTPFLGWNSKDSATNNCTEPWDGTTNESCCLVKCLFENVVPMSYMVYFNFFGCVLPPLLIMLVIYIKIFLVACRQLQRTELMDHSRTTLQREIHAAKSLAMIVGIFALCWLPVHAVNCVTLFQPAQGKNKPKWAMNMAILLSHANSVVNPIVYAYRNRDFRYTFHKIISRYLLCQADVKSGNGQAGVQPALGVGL
# Procedure: as §1, §2, §3
# [4] = target: T4, A1 (h) (agonist site) adenosine receptor (Homo sapiens, UniProt P30542); assay: Human recombinant adenosine receptor binding, A1 (h) (agonist site), [3H]CCPA; details: for pKi / pIC50 / nH (Hill coefficient), A1 (h) (agonist site): [3H]CCPA, Table 5; for pKi: Cheng Prusoff
# T4 construct: expressed in transfected cells
# T4 sequence (P30542 1-326): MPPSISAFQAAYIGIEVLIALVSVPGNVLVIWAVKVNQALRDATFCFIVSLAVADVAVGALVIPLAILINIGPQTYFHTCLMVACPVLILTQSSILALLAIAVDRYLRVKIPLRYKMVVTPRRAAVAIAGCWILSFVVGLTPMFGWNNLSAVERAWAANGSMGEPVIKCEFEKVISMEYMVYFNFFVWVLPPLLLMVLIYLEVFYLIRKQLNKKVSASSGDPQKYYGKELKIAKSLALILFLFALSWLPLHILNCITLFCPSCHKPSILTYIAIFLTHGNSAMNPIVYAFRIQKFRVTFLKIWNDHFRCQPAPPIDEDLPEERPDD
# Procedure: as §1, §2, §3
# [5] = target: T5, A3 (h) adenosine receptor (Homo sapiens, UniProt P0DMS8); assay: Human recombinant adenosine receptor binding, A3 (h), [3H]AB-MECA; details: for pKi: Table 8, read-out: Affinity Ki, A3
# T5 construct: expressed in transfected cells
# T5 sequence (P0DMS8 1-318): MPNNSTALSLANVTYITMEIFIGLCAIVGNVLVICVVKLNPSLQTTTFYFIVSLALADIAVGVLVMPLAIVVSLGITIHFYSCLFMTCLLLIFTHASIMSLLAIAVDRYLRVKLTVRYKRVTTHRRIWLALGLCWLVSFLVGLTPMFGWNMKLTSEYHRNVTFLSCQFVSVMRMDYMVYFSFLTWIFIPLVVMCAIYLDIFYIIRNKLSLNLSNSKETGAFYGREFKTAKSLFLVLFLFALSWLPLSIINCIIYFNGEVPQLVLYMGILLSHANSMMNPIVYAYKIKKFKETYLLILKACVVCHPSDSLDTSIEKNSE
# Procedure: as §1, §2, §3
# [6] = target: T6, A1 (h) adenosine receptor (Homo sapiens, UniProt P30542); assay: Human recombinant adenosine receptor binding, A1 (h), [3H]DPCPX; details: for A1 Selectivity vs. A2A / A1 Selectivity vs. A2B / A1 Selectivity vs. A3: ratio of Ki
# T6 construct: expressed in transfected cells
# T6 sequence (P30542 1-326): T4 sequence (P30542 1-326)
# Procedure: as §1, §2, §3
# [7] = Cheng Prusoff, Table 6, read-out: Ki, A2A (h)
# [8] = Table 8, read-out: Affinity Ki, A2A
# [9] = Table 8, read-out: Affinity Ki, A1
# [10] = [3H]DPCPX, Cheng Prusoff, Table 5, read-out: Ki, A1 (h)
Compound,"pKi [1, 7]",pIC50 ([1]; Table 6),"nH (Hill coefficient), A2A (h) ([1]; Table 6)","pKi [1, 8]",Kb [2] [nM],pKi [3],pKi [4],pIC50 [4],"nH (Hill coefficient), A1 (h) (agonist site) [4]",pKi [5],"pKi [6, 9]","pKi [6, 10]","pIC50 ([6]; [3H]DPCPX, Table 5)","nH (Hill coefficient), A1 (h) ([6]; [3H]DPCPX, Table 5)",A1 Selectivity vs. A2A ([6]; Table 8),A1 Selectivity vs. A2B ([6]; Table 8),A1 Selectivity vs. A3 ([6]; Table 8),also measured
"CC(C)N(C)c1nc2c(NC3CC4CC3CC4OCCCS(=O)(=O)O)ncnc2n1C (single isomer, unassigned) [1 (−isomer)]",4.09,4.00,1.4,4.09,300,< 4.00,5.74,5.37,1.0,< 4.00,5.96,5.96,5.74,1.0,75,>3000,>3000,–
"CC(C)N(C)c1nc2c(NC3CC4CC3CC4OCCCS(=O)(=O)O)ncnc2n1C (single isomer, unassigned) [Compound 1 (+isomer)]",5.59,5.49,0.8,5.59,32000,< 4.00,7.07,6.68,1.3,< 4.00,7.49,7.49,7.28,0.9,81,>3000,>3000,"pIC50 ([5]; Table 7, N.C. = not calculable, less than 25% inhibition at the highest tested concentration): < 4.00"
"CC(C)N(C)c1nc2c(N[C@H]3CC[C@H](OCCCS(=O)(=O)O)CC3)ncnc2n1C [Compound 6, N^6-[trans-4′-(^3-sulfopropoxy)cyclohexyl]-8-isopropylmethylamino-9-methyladenine]",–,–,–,–,85000,–,–,–,–,–,–,–,–,–,–,–,–,–
"CC(C)N(C)c1nc2c(NC3CC4CC3CC4O)[n+](C)cnc2n1C.[Cl-] (stereo not drawn) [Compound 14, N^6-(endo-5′-hydroxynorbornyl)-1-methyl-8-isopropylmethylamino-9-methyladenine chloride]",–,–,–,–,–,–,–,–,–,–,–,–,–,–,–,–,–,"Percent Inhibition of Control Specific Binding, A2A (h) ([1]; compound at 1×10^−5M, HEK-293 cells, [3H]CGS 21680 6 nM): −9; Percent Inhibition of Control Specific Binding, A2B (h) ([3]; compound at 1×10^−5M, HEK-293 cells, [3H]MRS 1754 0.5 nM): 5; Percent Inhibition of Control Specific Binding, A1 (h) (agonist site) ([4]; compound at 1×10^−5M, CHO cells, [3H]CCPA 1 nM): 18; Percent Inhibition of Control Specific Binding, A3 (h) ([5]; compound at 1×10^−5M, HEK-293 cells, [3H]AB-MECA 0.15 nM): 5; Percent Inhibition of Control Specific Binding, A1 (h) ([6]; compound at 1×10^−5M, CHO cells, [3H]DPCPX 1 nM): −1"
